EP1134585B1, “Biosensor and method for the monitoring of herbicides” (CONSIGLIO NAZIONALE DELLE RICERCHE, priority 2000, dated 2001)

Tests used:
D1 protein A1a251->Cys = D1 protein A1a251->Cys (Chlamydomonas reinhardtii, UniProt P07753, A251C); settings: cited from earlier work
D1 protein Ala250->Asn = D1 protein Ala250->Asn (Chlamydomonas reinhardtii, UniProt P07753, A250N); settings: cited from earlier work
[1] = system: thylakoids from Amaranthus retroflexus, Wild-type; experiment: Biosensor fluorescence response (Table D), wild-type biomediator; type: biochemical; settings: herbicide concentration 10^-6 M
PS II = PS II treated with CdCl2, refrigeration at 5°C, flow 0,2-2,0 ml/m
Excerpt: To further increase the stability of the biomediator the usefulness of a system for the refrigeration of the solution containing herbicide forwarded into the measuring cell experimentally was observed.

[2] = biological target: D1 protein Phe255->Tyr Ser264->Ala (Synechococcus elongatus, UniProt P04996, F255Y/S264A); settings: code D5; cited from earlier work
D1 protein Ala250->Asp = D1 protein Ala250->Asp (Chlamydomonas reinhardtii, UniProt P07753, A250D); settings: cited from earlier work
[3] = system: PS II isolated from thermophilic cyanobacteria; settings: immobilized PS II, Clark electrode (Koblizek et al.); cited from earlier work
D1 protein A1a250→IIe = D1 protein A1a250→IIe (Chlamydomonas reinhardtii, UniProt P07753, A250I); settings: cited from earlier work
D1 protein A1a250->Tyr = D1 protein A1a250->Tyr (Chlamydomonas reinhardtii, UniProt P07753, A250Y); settings: cited from earlier work
[4] = biological target: D1 protein Ala250→Ser Phe255→IIe (Chlamydomonas reinhardtii, UniProt P07753, A250S/F255I); settings: cited from earlier work
[5] = system: thylakoids from Amaranthus retroflexus, Mutant; type: biochemical; settings: herbicide concentration 10^-6 M
D1 protein Ala250->Arg = D1 protein Ala250->Arg (Chlamydomonas reinhardtii, UniProt P07753, A250R); settings: cited from earlier work
D1 protein A1a250->His = D1 protein A1a250->His (Chlamydomonas reinhardtii, UniProt P07753, A250H); settings: cited from earlier work
Phe216->Leu = settings: cited from earlier work
Gly228->Val = settings: cited from earlier work
Gly228->Arg = settings: cited from earlier work
I1e229→Met = settings: R. capsulatus; cited from earlier work
Ile229->Thr = settings: cited from earlier work
PhC2,6―Pro = settings: cited from earlier work
Thr226->Met = settings: cited from earlier work
Thr226->Ala = settings: cited from earlier work
I1e228->Leu = settings: cited from earlier work
Tyr222->Phe = settings: code T4; cited from earlier work
D1 protein Ser264->Ala = D1 protein Ser264->Ala (Chlamydomonas reinhardtii, UniProt P07753, S264A); settings: codes MZ1 MZ3 MZ5; cited from earlier work
D1 protein Ser264->Thr = settings: Nicotiana tabacum (cell culture); cited from earlier work
[6] = system: D1 protein Val219->Ile Thr220->Ala Ser270->Tyr; settings: code L5; cited from earlier work
Ile229->Met = settings: R. shaeroides; cited from earlier work
D1 protein Lysa)238->Val = D1 protein Lysa)238->Val (Synechocystis sp., UniProt P16033, K238V); settings: Lysa)238->Val (Arg in other organisms); cited from earlier work
Phe216->Thr = settings: cited from earlier work
Gly192->Asp = settings: cited from earlier work
Ile229->Ser = settings: cited from earlier work
monoclonal antibodies = settings: ELISA (Schneider et al. 1994); cited from earlier work
I1e229->Cys = settings: cited from earlier work
Phe216→Val = settings: cited from earlier work
I1e229->Ala = settings: cited from earlier work
D1 protein Phe255->Tyr = D1 protein Phe255->Tyr (Chlamydomonas reinhardtii, UniProt P07753, F255Y); settings: code Ar207+; cited from earlier work
D1 protein Ser284->Gly = settings: Chenopodium album; cited from earlier work
Phe216→Ser ValM263→Phe = settings: double mutant Phe216→Ser ValM263→Phe, code T3; cited from earlier work
Ile229->Met~.Met = settings: code M29; cited from earlier work
GluM34->Lys = settings: code M6; cited from earlier work
-Phe216→Ser = settings: code T6; cited from earlier work
Tyr222->Gly = settings: code YG222; cited from earlier work
Arg217→His Ser223→Ala = settings: double mutant Arg217→His Ser223→Ala; cited from earlier work
Ser223->Pro = settings: code SP223; cited from earlier work
[7] = biological target: D1 protein Phe211→Gly Met214→Gln (Chlamydomonas reinhardtii, UniProt P07753, F211G/M214Q); settings: cited from earlier work

Structure (SMILES): COC(=O)Nc1cccc(OC(=O)Nc2cccc(C)c2)c1 [Phenmedipham]
- Supersensitivity R/S (D1 protein A1a251->Cys): 0,8

Structure (SMILES): N#Cc1cc(Br)c(O)c(Br)c1 [Bromoxynil]
- Supersensitivity R/S (D1 protein Ala250->Asn): Bromoxynil 0,2
- Area % inhibition Wild-type [1]: 97%
- sensitivity (concentration) (PS II): one order of magnitude higher
- Supersensitivity R/S [2]: 0,8
- Supersensitivity R/S (D1 protein Ala250->Asp): Bromoxynil 0,16
- sensitivity [3]: 10^-7 mol/l
- Supersensitivity R/S (D1 protein A1a250→IIe): Bromoxynil 0,3
- Supersensitivity R/S (D1 protein A1a250->Tyr): Bromoxynil 0,4
- Supersensitivity R/S [4]: 0,2
- Area % inhibition Mutant [5]: 95%
- Supersensitivity R/S (D1 protein Ala250->Arg): Bromoxynil 0,3
- Supersensitivity R/S (D1 protein A1a250->His): Bromoxynil 0,16

Structure (SMILES): CCNc1nc(NC(C)C)nc(SC)n1 [Ametryn]
- Area % inhibition Wild-type [1]: 99%
- Resistance R/S (Phe216->Leu): Ametryn 3,1
- Resistance R/S (Gly228->Val): Ametryn 5,3
- Resistance R/S (Gly228->Arg): Ametryn 4
- Resistance R/S (I1e229→Met): Ametryn 5,3
- Resistance R/S (Ile229->Thr): Ametryn 1,9
- Resistance R/S (PhC2,6―Pro): Ametryn 1,9
- Resistance R/S (Thr226->Met): Ametryn 2,5
- Area % inhibition Mutant [5]: 21%
- Resistance R/S (Thr226->Ala): Ametryn 4
- Resistance R/S (I1e228->Leu): Ametryn 2,5
- Resistance R/S (Tyr222->Phe): Ametryn 330

Structure (SMILES): CC(C)Cc1cc([N+](=O)[O-])cc([N+](=O)[O-])c1O [i-Dinoseb]
- Supersensitivity R/S (D1 protein Ser264->Ala): i-Dinoseb 0,7

Structure (SMILES): CNc1nc(NC(C)C)nc(SC)n1 [Desmetryn]
- Area % inhibition Wild-type [1]: 92%
- Area % inhibition Mutant [5]: 10%
- Resistance R/S (Tyr222->Phe): Desmetryn 50

Structure (SMILES): CCC(C)c1cc([N+](=O)[O-])cc([N+](=O)[O-])c1O (centres unmarked) [Dinoseb]
- Area % inhibition Wild-type [1]: 99%
- Supersensitivity R/S (D1 protein Ser264->Thr): Dinoseb 0,13
- Supersensitivity R/S [2]: 0,08
- Area % inhibition Mutant [5]: 93%
- Supersensitivity R/S [6]: Dinoseb 0,7

Structure (SMILES): CCNc1nc(Cl)nc(NC(C)C)n1 [Atrazine]
- Resistance R/S (Ile229->Met): Atrazine >7
- Supersensitivity R/S (D1 protein Lysa)238->Val): Atrazine 0,6
- Supersensitivity R/S (D1 protein Ala250->Asn): Atrazine 0,3
- Area % inhibition Wild-type [1]: 96%
- Supersensitivity R/S (D1 protein A1a251->Cys): Atrazin 0,8
- Resistance R/S (Phe216->Leu): Atrazine 4,2
- sensitivity (concentration) (PS II): lower than nanomolar
- Resistance R/S (Phe216->Thr): Atrazine 3,5
- Resistance R/S (Gly228->Val): Atrazine 4,2
- Resistance R/S (Gly192->Asp): Atrazine 6
- Resistance R/S (Gly228->Arg): Atrazine 5,4
- Resistance R/S (Ile229->Ser): Atrazine 1,8
- Supersensitivity R/S (D1 protein Ala250->Asp): Atrazine 0,25
- Resistance R/S (I1e229→Met): Atrazine 5,4
- sensitivity (monoclonal antibodies): 100 pM
- Resistance R/S (Ile229->Thr): Atrazine 3,7
- Resistance R/S (I1e229->Cys): Atrazine 2
- Resistance R/S (PhC2,6―Pro): Atrazine 1,9
- Supersensitivity R/S (D1 protein A1a250→IIe): Atrazine 0,5
- Resistance R/S (Thr226->Met): Atrazine 3,1
- Supersensitivity R/S (D1 protein A1a250->Tyr): Atrazine 0,4
- Supersensitivity R/S [4]: Atrazine 0,5
- Area % inhibition Mutant [5]: 15%
- Resistance R/S (Phe216→Val): Atrazine 1,8
- Resistance R/S (I1e229->Ala): Atrazine 1,8
- Supersensitivity R/S (D1 protein Ala250->Arg): Atrazin 0.25
- Resistance R/S (Thr226->Ala): Atrazin 3,1
- Resistance R/S (I1e228->Leu): Atrazine 3,5
- Resistance R/S (Tyr222->Phe): Atrazine >600

Structure (SMILES): CNC(=O)Nc1nc2ccccc2s1 [Benzthiazuron]
- Supersensitivity R/S (D1 protein Phe255->Tyr): 0,3

Structure (SMILES): COc1nc(NC(C)C)nc(NC(C)C)n1 [Prometon]
- Resistance R/S (Phe216->Leu): Prometon 1,8
- Resistance R/S (Gly228->Val): Prometon 1,3
- Resistance R/S (Gly228->Arg): Prometon 1,2
- Resistance R/S (I1e229→Met): Prometron 1,2
- Resistance R/S (Ile229->Thr): Prometon 1,2
- Resistance R/S (PhC2,6―Pro): Prometon 1,8
- Resistance R/S (I1e229->Ala): Prometron 1,2
- Resistance R/S (Thr226->Ala): Prometon 1,8

Structure (SMILES): CC(C)N1C(=O)c2ccccc2NS1(=O)=O [Bentazon]
- Supersensitivity R/S (D1 protein Ser284->Gly): Bentazon 0,5

Structure (SMILES): CSc1nc(NC(C)C)nc(NC(C)C)n1 [Prometryn]
- Resistance R/S (Phe216->Leu): Prometryn 1,4
- Resistance R/S (Gly228->Val): Prometryn 1,4
- Resistance R/S (Gly228->Arg): Prometryn 1,1
- Resistance R/S (I1e229→Met): Prometryn 2
- Resistance R/S (Ile229->Thr): Prometryn 1,4
- Resistance R/S (Thr226->Met): Prometryn 1,1
- Resistance R/S (Thr226->Ala): Prometryn 1,4

Structure (SMILES): CCNc1nc(Cl)nc(NCC)n1 [Simazine]
- Area % inhibition Wild-type [1]: 95%
- sensitivity (concentration) (PS II): lower than nanomolar
- Area % inhibition Mutant [5]: 14%

Structure (SMILES): CCC(C)n1c(=O)[nH]c(C)c(Br)c1=O (centres unmarked) [Bromacil]
- Supersensitivity R/S (D1 protein Phe255->Tyr): Bromacil 0,9

Structure (SMILES): CCNc1nc(NC(C)(C)C)nc(SC)n1 [Terbutryn]
- Resistance R/S (Phe216→Ser ValM263→Phe): Terbutryn 166
- Resistance R/S (Ile229->Met~.Met): Terbutryn 120
- Resistance R/S (GluM34->Lys): Terbutryn > 125
- Resistance R/S (-Phe216→Ser): Terbutryn >2800
- Resistance R/S (Gly228->Val): Terbutryn 1,5
- Resistance R/S (Gly192->Asp): Terbutryn 300
- Resistance R/S (Gly228->Arg): Terbutryn 1,3
- Supersensitivity R/S (Ile229->Ser): Terbutryn 0,4
- Supersensitivity R/S (D1 protein Ala250->Asp): Terbutryn 0,4
- Resistance R/S (I1e229→Met): Terbutryn 1,9
- Resistance R/S (Tyr222->Gly): Terbutryn >3000
- Resistance R/S (Arg217→His Ser223→Ala): Terbutryn 222
- Supersensitivity R/S (D1 protein A1a250→IIe): Terbutryn 0,5
- Resistance R/S (Thr226->Met): Terbutryn 1,7
- Supersensitivity R/S [4]: 0,9
- Resistance R/S (Ser223->Pro): Terbutryn >3000
- Resistance R/S (Thr226->Ala): Terbutryn 1,7
- Supersensitivity R/S (Thr226->Ala): Terbutryn 0,6(?)

Structure (SMILES): c1cnc2c(c1)ccc1cccnc12 [o-Phenanthroline]
- Resistance R/S (Phe216→Ser ValM263→Phe): o-Phenathroline 67
- Resistance R/S (Ile229->Met~.Met): o-Phenanthro me 11
- Resistance R/S (GluM34->Lys): o-Phenanthroline >25
- Resistance R/S (-Phe216→Ser): o-Phenanthroline 333
- Resistance R/S (Gly192->Asp): o-Phenanthroline 3
- Resistance R/S (Ile229->Ser): o-Phenanthroline 1,3
- Resistance R/S (Tyr222->Gly): o-Phenanthroline 26
- Resistance R/S (Arg217→His Ser223→Ala): o-Phenanthroline 5
- Resistance R/S (Ser223->Pro): o-Phenanthroline 6,25
- Supersensitivity R/S (Thr226->Ala): line 0,03
- Resistance R/S (Tyr222->Phe): o-Phenanthroline 10

Structure (SMILES): Cc1nnc(-c2ccccc2)c(=O)n1N [Metamitron]
- Supersensitivity R/S [7]: 0,4
- Supersensitivity R/S (D1 protein Phe255->Tyr): Metamitron 0,3

Structure (SMILES): CNC(=O)N(C)c1nc2ccccc2s1 [Metabenzthiazuron]
- Supersensitivity R/S (D1 protein Phe255->Tyr): zuron 0,3
